Values joined by “and” are separate entries in the source; they are usually repeats but may differ in a detail not shown here. Equal entries are not always repeated. Toxic doses and inconclusive results are not listed.
System: BDF1 mice, P388 leukemia ip, median survival T/C
Test: NCI In Vivo Anticancer Drug Screen. Data for tumor model P388 Leukemia (intraperitoneal) in B6D2F1 (BDF1) mice
Details: endpoint: median survival time, higher = longer survival
Summary of the method: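 Transplantable tumour in mice; compound vs vehicle dosing; survival scored; ratio of treated to control reported.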

[1] = dose: 25.0 mg/kg/injection, schedule: Q01DX009 (ip), vehicle: saline with Tween-80
[2] = dose: 50.0 mg/kg/injection, schedule: Q01DX009 (ip), vehicle: saline with Tween-80
[3] = dose: 100.0 mg/kg/injection, schedule: Q04DX003 (ip), vehicle: saline with Tween-80
[4] = dose: 200.0 mg/kg/injection, schedule: Q04DX003 (ip), vehicle: saline with Tween-80
[5] = dose: 100.0 mg/kg/injection, schedule: Q01DX009 (ip), vehicle: saline with Tween-80
[6] = dose: 100.0 mg/kg/injection, schedule: Q04DX003 (ip), vehicle: Klucel (hydroxypropylcellulose) (HPC)
[7] = dose: 200.0 mg/kg/injection, schedule: Q04DX003 (ip), vehicle: Klucel (hydroxypropylcellulose) (HPC)
[8] = dose: 400.0 mg/kg/injection, schedule: Q04DX003 (ip), vehicle: Klucel (hydroxypropylcellulose) (HPC)

With `COc1cccc2c1C(=O)c1c(O)c3c(c(O)c1C2=O)C[C@@](O)(/C(C)=N/NC(=O)c1ccccc1)C[C@@H]3OC1CC(N)C(O)C(C)O1` (stereo not given in full) the T/C (dose: 0.38 mg/kg/injection, schedule: Q01DX009 (ip), vehicle: water) was 166 % of control, the T/C (dose: 0.75 mg/kg/injection, schedule: Q01DX009 (ip), vehicle: water) was 166 % of control and the T/C (dose: 1.5 mg/kg/injection, schedule: Q01DX009 (ip), vehicle: saline) was 216 % of control. The T/C (dose: 1.5 mg/kg/injection, schedule: Q01DX009 (ip), vehicle: water) was 123 % of control and 217 % of control, the T/C (dose: 3.0 mg/kg/injection, schedule: Q01DX009 (ip), vehicle: saline) was 250 % of control and the T/C (dose: 3.0 mg/kg/injection, schedule: Q01DX009 (ip), vehicle: water) was 245 % of control and 110 % of control. For the same compound, the T/C (dose: 3.0 mg/kg/injection, schedule: Q04DX003 (ip), vehicle: saline) was 226 % of control, the T/C (dose: 6.0 mg/kg/injection, schedule: Q01DX009 (ip), vehicle: saline) was 166 % of control and the T/C (dose: 6.0 mg/kg/injection, schedule: Q01DX009 (ip), vehicle: water) was 164 % of control. For the same compound, the T/C (dose: 6.0 mg/kg/injection, schedule: Q04DX003 (ip), vehicle: saline) was 208 % of control, the T/C (dose: 6.5 mg/kg/injection, schedule: Q04DX003 (ip), vehicle: water) was 171 % of control and the T/C (dose: 10.8 mg/kg/injection, schedule: Q04DX003 (ip), vehicle: water) was 165 % of control. For the same compound, the T/C (dose: 12.0 mg/kg/injection, schedule: Q01DX009 (ip), vehicle: saline) was 95 % of control, the T/C (dose: 12.0 mg/kg/injection, schedule: Q04DX003 (ip), vehicle: saline) was 195 % of control and the T/C (dose: 18.0 mg/kg/injection, schedule: Q04DX003 (ip), vehicle: water) was 103 % of control.

`Nc1cc(C(=O)Nc2ccc(C3=NCCN3)cc2)ccc1C(=O)Nc1ccc(C2=NCCN2)cc1` was tested, and the T/C (dose: 1.4 mg/kg/injection, schedule: Q01DX009 (ip), vehicle: saline with Tween-80) was 158 % of control, the T/C (dose: 2.2 mg/kg/injection, schedule: Q01DX009 (ip), vehicle: saline with Tween-80) was 154 % of control and the T/C (dose: 3.3 mg/kg/injection, schedule: Q01DX009 (ip), vehicle: saline with Tween-80) was 154 % of control and 200 % of control. For the same compound, the T/C (dose: 5.0 mg/kg/injection, schedule: Q01DX009 (ip), vehicle: saline with Tween-80) was 191 % of control, the T/C (dose: 8.0 mg/kg/injection, schedule: Q01DX009 (ip), vehicle: saline with Tween-80) was 230 % of control and the T/C (dose: 12.0 mg/kg/injection, schedule: Q01DX009 (ip), vehicle: saline with Tween-80) was 230 % of control. For the same compound, the T/C (dose: 12.5 mg/kg/injection, schedule: Q01DX009 (ip), vehicle: saline with Tween-80) was 230 % of control, the T/C (dose: 13.0 mg/kg/injection, schedule: Q04DX003 (ip), vehicle: saline with Tween-80) was 170 % of control and the T/C (dose: 20.0 mg/kg/injection, schedule: Q04DX003 (ip), vehicle: saline with Tween-80) was 208 % of control. For the same compound, the T/C [1] was 230 % of control, the T/C (dose: 30.0 mg/kg/injection, schedule: Q04DX003 (ip), vehicle: saline with Tween-80) was 250 % of control and 181 % of control and the T/C (dose: 44.0 mg/kg/injection, schedule: Q04DX003 (ip), vehicle: saline with Tween-80) was 272 % of control. The T/C [2] was 92 % of control, the T/C (dose: 66.0 mg/kg/injection, schedule: Q04DX003 (ip), vehicle: saline with Tween-80) was 229 % of control and 272 % of control and the T/C [3] was 166 % of control and 204 % of control. The T/C (dose: 150.0 mg/kg/injection, schedule: Q04DX003 (ip), vehicle: saline with Tween-80) was 100 % of control and the T/C [4] was 100 % of control.

In the case of `O=C(CCN1CCCCC1)c1ccc(C(F)(F)F)cc1`, the T/C (dose: 0.39 mg/kg/injection, schedule: Q01DX009 (ip), vehicle: saline) is reported as 100 % of control and 116 % of control, the T/C (dose: 0.78 mg/kg/injection, schedule: Q01DX009 (ip), vehicle: saline) is reported as 102 % of control and 116 % of control and the T/C (dose: 1.56 mg/kg/injection, schedule: Q01DX009 (ip), vehicle: saline) is reported as 100 % of control. The T/C (dose: 6.25 mg/kg/injection, schedule: Q01DX009 (ip), vehicle: saline with Tween-80) was 99 % of control.

For `CC(C)(C)c1cccc(C(C)(C)C)c1`, the T/C (dose: 100.0 mg/kg/injection, schedule: Q01DX001 (ip), vehicle: saline with Tween-80) was 100 % of control and the T/C (dose: 200.0 mg/kg/injection, schedule: Q01DX001 (ip), vehicle: saline with Tween-80) was 94 % of control.

`CC(C)N(C(C)C)S(=O)(=O)c1ccccc1C(O)(c1ccccc1)c1ccccc1` was tested, and the T/C [1] was 90 % of control, the T/C [2] was 86 % of control and the T/C [5] was 90 % of control.

For `COc1ccc(CNCCO)cc1`, the T/C (dose: 50.0 mg/kg/injection, schedule: Q04DX003 (ip), vehicle: saline) was 108 % of control, the T/C (dose: 100.0 mg/kg/injection, schedule: Q01DX009 (ip), vehicle: saline) was 109 % of control and the T/C (dose: 100.0 mg/kg/injection, schedule: Q04DX003 (ip), vehicle: saline) was 100 % of control and 116 % of control. The T/C (dose: 200.0 mg/kg/injection, schedule: Q01DX009 (ip), vehicle: saline) was 90 % of control, the T/C (dose: 200.0 mg/kg/injection, schedule: Q04DX003 (ip), vehicle: saline) was 91 % of control and the T/C (dose: 400.0 mg/kg/injection, schedule: Q01DX009 (ip), vehicle: saline) was 111 % of control. For the same compound, the T/C (dose: 400.0 mg/kg/injection, schedule: Q04DX003 (ip), vehicle: saline) was 91 % of control and 95 % of control.

`CCCCCCc1c(C(OC)OC)[nH]c(=S)[nH]c1=O` was tested, and the T/C (dose: 100.0 mg/kg/injection, schedule: Q01DX009 (ip), vehicle: Klucel (hydroxypropylcellulose) (HPC)) was 96 % of control and the T/C (dose: 200.0 mg/kg/injection, schedule: Q01DX009 (ip), vehicle: Klucel (hydroxypropylcellulose) (HPC)) was 89 % of control.

`Cc1noc(/N=C/c2ccccc2)c1C` was tested, and the T/C (dose: 100.0 mg/kg/injection, schedule: Q01DX001 (ip), vehicle: Klucel (hydroxypropylcellulose) (HPC)) was 108 % of control, the T/C [6] was 95 % of control and the T/C (dose: 200.0 mg/kg/injection, schedule: Q01DX001 (ip), vehicle: Klucel (hydroxypropylcellulose) (HPC)) was 104 % of control. For the same compound, the T/C [7] was 100 % of control and 104 % of control, the T/C (dose: 400.0 mg/kg/injection, schedule: Q01DX001 (ip), vehicle: Klucel (hydroxypropylcellulose) (HPC)) was 112 % of control and the T/C [8] was 91 % of control and 100 % of control.

With `CCNSc1ccccc1` the T/C (dose: 12.5 mg/kg/injection, schedule: Q01DX009 (ip), vehicle: Klucel (hydroxypropylcellulose) (HPC)) was 109 % of control, the T/C (dose: 25.0 mg/kg/injection, schedule: Q01DX009 (ip), vehicle: Klucel (hydroxypropylcellulose) (HPC)) was 110 % of control and the T/C (dose: 50.0 mg/kg/injection, schedule: Q01DX009 (ip), vehicle: Klucel (hydroxypropylcellulose) (HPC)) was 106 % of control.

`CN(C)P(=O)(N(C)C)N(C)CCN(C)P(=O)(N(C)C)N(C)C` was tested, and the T/C (dose: 12.5 mg/kg/injection, schedule: Q01DX009 (ip), vehicle: saline) was 108 % of control, the T/C (dose: 25.0 mg/kg/injection, schedule: Q01DX009 (ip), vehicle: saline) was 101 % of control and the T/C (dose: 50.0 mg/kg/injection, schedule: Q01DX009 (ip), vehicle: saline) was 101 % of control and 111 % of control.

With `N#CS/C=C\C(N)=O` the T/C (dose: 1.5 mg/kg/injection, schedule: Q01DX009 (ip), vehicle: Klucel (hydroxypropylcellulose) (HPC)) was 100 % of control, the T/C (dose: 1.5 mg/kg/injection, schedule: Q04DX003 (ip), vehicle: Klucel (hydroxypropylcellulose) (HPC)) was 95 % of control and the T/C (dose: 3.0 mg/kg/injection, schedule: Q01DX009 (ip), vehicle: Klucel (hydroxypropylcellulose) (HPC)) was 91 % of control. The T/C (dose: 3.0 mg/kg/injection, schedule: Q04DX003 (ip), vehicle: Klucel (hydroxypropylcellulose) (HPC)) was 95 % of control, the T/C (dose: 6.0 mg/kg/injection, schedule: Q01DX009 (ip), vehicle: Klucel (hydroxypropylcellulose) (HPC)) was 89 % of control and 91 % of control and the T/C (dose: 6.0 mg/kg/injection, schedule: Q04DX003 (ip), vehicle: Klucel (hydroxypropylcellulose) (HPC)) was 100 % of control. The T/C (dose: 6.25 mg/kg/injection, schedule: Q04DX003 (ip), vehicle: Klucel (hydroxypropylcellulose) (HPC)) was 90 % of control and the T/C (dose: 12.5 mg/kg/injection, schedule: Q04DX003 (ip), vehicle: Klucel (hydroxypropylcellulose) (HPC)) was 100 % of control.

With `CC(C)C(=O)c1ccc([N+](=O)[O-])o1` the T/C [2] was 115 % of control, the T/C [5] was 111 % of control and the T/C [3] was 107 % of control. For the same compound, the T/C (dose: 200.0 mg/kg/injection, schedule: Q01DX009 (ip), vehicle: saline with Tween-80) was 109 % of control, the T/C [4] was 116 % of control and the T/C (dose: 400.0 mg/kg/injection, schedule: Q01DX009 (ip), vehicle: saline with Tween-80) was 107 % of control. For the same compound, the T/C (dose: 400.0 mg/kg/injection, schedule: Q04DX003 (ip), vehicle: saline with Tween-80) was 109 % of control.

`C(=N\N(c1ccccc1)c1ccccc1)/c1ccc(/C=N/N(c2ccccc2)c2ccccc2)cc1` was tested, and the T/C [6] was 100 % of control, the T/C [7] was 100 % of control and the T/C [8] was 95 % of control.

— PubChem BioAssay AID328 (DTP/NCI, 2004)
